In patent US20250018049A1, “COMPOUNDS FOR DEGRADING CYCLIN-DEPENDENT KINASE 2 VIA UBIQUITIN PROTEOSOME PATHWAY” (NIKANG THERAPEUTICS, INC., priority 2020, published 2025) one finds IC50 and Dmax data, which are given here for eleven compounds.

Holding throughout (format): cell-based
The target in assay [1] is T1, CDK2 (Homo sapiens, UniProt P24941). Nature of the assay: NanoBRET CDK2 engagement assay. The settings on record: OVCAR3 cells with stable CDK2-Luciferase vector, 24 hours treatment. Also noted: expressed in transfected cells. As for the experimental part: OVCAR3 cells with stable transfection of CDK2-Luciferase vector were seeded into 96-well plate at a density of 20,000 cells per well, 50 μL Opti-MEM medium supplemented with 1% FBS. Following morning, cells were treated with compounds of the disclosure, with starting concentration at 3 μM and ½ log dilution down to 0.3 nM for 24 hours at 37° C. DMSO treatment serves as control. Compound engagement was then measured using NanoBRE™ Kinase Kit from Promega (Part Number: CS1810C122, NanoBRET™ TE Kinase Kit #10, 1K) following manufacturer's instruction. For 24 hours treatment, tracer was added only for the last 2 hours. Briefly, 2.5 μL of complete 20× NanoBRET Tracer was added to the cells in suspension. Immediately prior to BRET measurements, prepare 3× Complete NanoBRET® Nano-Glo® Substrate in Opti-MEM without serum and phenol red. Without any delay, 25 μL per well of 3× Complete NanoBRET™ Nano-Glo® Substrate for a 96-well plate was added and mixed well. Signal was then read on a CLARIOstar® plate reader (measure donor emission (e.g., 450 nm) and acceptor emission (e.g., 610 nm or 630 nm) using a NanoBRET™-compatible luminometer. Target engagement was calculated with DMSO treatment as 100% signal, and IC50 was calculated by GraphPad Prism 9.
Background: BRET reads energy transfer from a luciferase to a nearby fluorophore.

Assay [2] addresses T1, CDK2. The experiment in a line: Phospho-Rb HTRF measurement in OVCAR3 cells (inhibition of CDK2). Set-up: High-Throughput Measurement of Cellular Endogenous CDK2; endogenous in cells; host or cells: OVCAR3. Conditions: pRB(S807/811) assay, 24 h compound treatment. As for the experimental part: Phosphorylation of RB protein at S780 and S807/811 were measured using HTRF phospho-RB cellular kits (Cat #64RBS780PEG and 64RBS807PEG) from Cisbio.
On Day 1, OVCAR3 or KYSE520 cells were seeded into 96-well tissue-culture treated plates at 20,000 cells/well in 200 μL and incubated overnight at 37° C. in CO2 atmosphere. On Day 2, the cells were treated with test compounds at concentrations from 0.3 to 10,000 nM using HP D300 digital dispenser. Twenty-four hours after compound treatment, cell culture media was removed by flicking the plate and tapping the plate against clean paper towel. Immediately 30 μL 1× lysis buffer was supplemented from the kit and the plate was incubated at room temperature on shaker for 30 min. After homogenization by pipetting up and down, 8 μL cell lysate from 96-well cell culture plate was transferred to 384-well small volume white detection plate. 2 μL premixed detection solution was added and the plate was covered with sealer. To prepare the detection solution, d2 conjugated-phospho-RB antibody and Eu-cryptate conjugated phosphor-RB antibody were diluted into detection buffer following manufacturer's instruction. Detection plates were incubated for 4 h at room temperature and read on ClarioStar (BMG Labtech) in TR-FRET mode (665 nM and 620 nM). The TR-FRET ratio (665 nM/620 nM) was plotted against the compound concentration and normalized to DMSO controls. Half maximal inhibition concentration (IC50) values are calculated with a four-parameter logistic fit using GraphPad Prism (version 8; La Jolla, CA).

Assay [3] deals with T1, CDK2. Nature of the assay: CDK2 HTRF assay (cellular endogenous CDK2 level). The settings on record: OVCAR-3; OVCAR3 cells, 24 hours, 0.3 to 10,000 nM; read-out: max degradation of CDK2. Set-up: High-Throughput Measurement of Cellular Endogenous CDK2; endogenous in cells; host or cells: OVCAR3. The procedure:
Effects of compounds on cellular CDK2 level can be monitored by a high-throughput HTRF assay or traditional Western Blot assay.
To determine half maximal degradation concentration (DC50) values of compounds, cellular CDK2 level was measured in 96-well format using HTRF total CDK2 cellular kit (Cat #64CDK2TPEG) from Cisbio.
On Day 1, OVCAR3 cells were seeded into 96-well tissue-culture treated plates at 20,000 cells/well in 200 μL and incubated overnight at 37° C. in CO2 atmosphere. On Day 2 cells were treated with compounds at concentration ranging from 0.3 to 10,000 nM using HP D300 digital dispenser. 24 hours after compound treatment, cell culture media was removed by flicking the plate and tapping the plate against clean paper towel. Immediately 30 μL 1× lysis buffer was supplemented from the kit and the plate was incubated at room temperature on shaker for 30 min. After homogenization by pipetting up and down, 8 μL cell lysate from 96-well cell culture plate was transferred to 384-well small volume white detection plate. 2 μL premixed detection solution was added and the plate was covered with sealer. To prepare the detection solution, d2 conjugated-CDK2 antibody and Eu-cryptate conjugated CDK2 antibody were diluted into detection buffer following manufacturer's instruction. Detection plates were incubated overnight at room temperature and read on ClarioStar (BMG Labtech) in TR-FRET mode (665 nM and 620 nM). The TR-FRET ratio (665 nM/620 nM) was plotted against the compound concentration and normalized to DMSO controls. Half maximal degradation concentration (DC50) values were calculated with a four-parameter logistic fit using GraphPad Prism (version 8; La Jolla, CA). FIG. 1 provides a dose-response curve of Compound 1 in Compound Table I in cellular CDK2 HTRF assay. IC50 in FIG. 1 is the same as DC50. Compounds 1, 13, 16, 22, 23, 28, 34, 35, 36, 37, 38, 39, 42, 48, 50, 51, 53, 54, 55, 56, 57, 58, 59, 60, 61, 62, 63, 65, 66, 68, 69, 70 were tested and max degradation of CDK2 observed was from about 35% to about 90%.
Background: TR-FRET usually uses a lanthanide donor and a delayed reading to cut background.

What is called IC50 is the point on the concentration scale where inhibition reaches its midpoint. Low readings indicate greater potency, high ones weaker potency.

Turning to `Cn1c(=O)n(C2CCC(=O)NC2=O)c2cccc(C#CCOC3CCN(CC4CCN(S(=O)(=O)N5CCC(Nc6ncc7ccc(=O)n(C8CCCC8)c7n6)CC5)CC4)CC3)c21` (stereo not drawn) [Compound 13, 3-(4-(3-((1-((1-((4-((8-cyclopentyl-7-oxo-7,8-dihydropyrido[2,3-d]pyrimidin-2-yl)amino)-piperidin-1-yl)sulfonyl)piperidin-4-yl)methyl)-piperidin-4-yl)oxy)prop-1-yn-1-yl)-3-methyl-2-oxo-2,3-dihydro-1H-benzo[d]imidazol-1-yl)-piperidine-2,6-dione], the IC50 against CDK2 [1] was found to be 292 nM; on CDK2 [2], 2120 nM. Moreover, the Dmax at CDK2 [3] was 35 to 90%.
Turning to `Cn1c(=O)n(C2CCC(=O)NC2=O)c2cccc(CCCOC3CCN(S(=O)(=O)N4CCC(Nc5ncc6ccc(=O)n(C7CCCC7)c6n5)CC4)CC3)c21` (stereo not drawn) [Compound 16, 3-(4-(3-((1-((4-((8-cyclopentyl-7-oxo-7,8-dihydropyrido[2,3-d]pyrimidin-2-yl)amino)-piperidin-1-yl)sulfonyl)piperidin-4-yl)oxy)propyl)-3-methyl-2-oxo-2,3-dihydro-1H-benzo[d]-imidazol-1-yl)piperidine-2,6-dione], the IC50 against CDK2 [1] worked out at 320 nM; against CDK2 [2], 495 nM. Besides, the Dmax on CDK2 [3] lay within 35 to 90%.
For the compound `O=C1CCC(N2Cc3cc(CN4CC(Oc5cccc(S(=O)(=O)N6CCC(Nc7ncc8ccc(=O)n(C9CCCC9)c8n7)CC6)c5)C4)ccc3C2=O)C(=O)N1` (stereo not drawn) [Compound 67, 3-(5-((3-(3-((4-((8-cyclopentyl-7-oxo-7,8-dihydro-pyrido[2,3-d]pyrimidin-2-yl)amino)piperidin-1-yl)sulfonyl)phenoxy)azetidin-1-yl)methyl)-1-oxoisoindolin-2-yl)piperidine-2,6-dione], the half-inhibitory concentration (IC50) against CDK2 [1] was 150 nM; on CDK2 [2] it was 27 nM.
As to `Cn1nc(N2CCC(=O)NC2=O)c2ccc(C3CCN(Cc4cccc(S(=O)(=O)N5CCC(Nc6ncc7ccc(=O)n(C8CCCC8)c7n6)CC5)c4)CC3)cc21` [Compound 71, 1-(6-(1-(3-((4-((8-cyclopentyl-7-oxo-7,8-dihydropyrido[2,3-d]pyrimidin-2-yl)amino)-piperidin-1-yl)sulfonyl)-benzyl)piperidin-4-yl)-1-methyl-1H-indazol-3-yl)dihydropyrimidine-2,4(1H,3H)-dione], the half-inhibitory concentration (IC50) on CDK2 [1] was 167 nM; against CDK2 [2], 10.3 nM.
As to `Cn1c(=O)n(C2CCC(=O)NC2=O)c2cccc(C3CCN(C4CN(c5cccc(S(=O)(=O)N6CCC(Nc7ncc8ccc(=O)n(C9CCCC9)c8n7)CC6)c5)C4)CC3)c21` (stereo not drawn) [Compound 72, 3-(4-(1-(1-(3-((4-((8-cyclopentyl-7-oxo-7,8-dihydropyrido[2,3-d]pyrimidin-2-yl)amino)-piperidin-1-yl)sulfonyl)phenyl)azetidin-3-yl)piperidin-4-yl)-3-methyl-2-oxo-2,3-dihydro-1H-benzo[d]imidazol-1-yl)piperidine-2,6-dione], the IC50 against CDK2 [1] was determined as 425 nM; at CDK2 [2], 355 nM.
Take `O=C(COc1cccc2c1C(=O)N(C1CCC(=O)NC1=O)C2=O)NCCOCCOCCN1CCN(S(=O)(=O)N2CCC(Nc3ncc4ccc(=O)n(C5CCCC5)c4n3)CC2)CC1` (stereo not drawn) [compound 2, N-(2-(2-(2-(4-((4-((8-cyclopentyl-7-oxo-7,8-dihydropyrido[2,3-d]pyrimidin-2-yl)amino)-piperidin-1-yl)sulfonyl)piperazin-1-yl)-ethoxy)ethoxy)ethyl)-2-((2-(2,6-dioxo-piperidin-3-yl)-1,3-dioxoisoindolin-4-yl)-oxy)acetamide]: the IC50 at CDK2 [1] is 1310 nM; against CDK2 [2] it was 1280 nM.
In the case of `O=C(COc1cccc2c1C(=O)N(C1CCC(=O)NC1=O)C2=O)NCCOCCN1CCN(S(=O)(=O)N2CCC(Nc3ncc4ccc(=O)n(C5CCCC5)c4n3)CC2)CC1` (stereo not drawn) [compound 3, N-(2-(2-(4-((4-((8-cyclopentyl-7-oxo-7,8-dihydropyrido[2,3-d]pyrimidin-2-yl)amino)-piperidin-1-yl)sulfonyl)piperazin-1-yl)-ethoxy)ethyl)-2-((2-(2,6-dioxopiperidin-3-yl)-1,3-dioxoisoindolin-4-yl)oxy)acetamide], the IC50 was found to be 3040 nM against CDK2 [1] and 2670 nM against CDK2 [2].
For `CN1C(=O)CCC(N2C(=O)c3cccc(OCC(=O)NCCOCCN4CCN(S(=O)(=O)N5CCC(Nc6ncc7ccc(=O)n(C8CCCC8)c7n6)CC5)CC4)c3C2=O)C1=O` (stereo not drawn) [compound 5, N-(2-(2-(4-((4-((8-cyclopentyl-7-oxo-7,8-dihydropyrido[2,3-d]pyrimidin-2-yl)amino)-piperidin-1-yl)sulfonyl)piperazin-1-yl)-ethoxy)ethyl)-2-((2-(1-methyl-2,6-dioxo-piperidin-3-yl)-1,3-dioxoisoindolin-4-yl)oxy)acetamide], the IC50 on CDK2 [1] was 4110 nM; at CDK2 [2] it was 5860 nM.
On to `O=C(COc1cccc2c1C(=O)N(C1CCC(=O)NC1=O)C2=O)NCCOCCOCCOCCOCCN1CCN(S(=O)(=O)N2CCC(Nc3ncc4ccc(=O)n(C5CCCC5)c4n3)CC2)CC1` (stereo not drawn) [compound 6, N-(14-(4-((4-((8-cyclopentyl-7-oxo-7,8-dihydro-pyrido[2,3-d]pyrimidin-2-yl)amino)-piperidin-1-yl)sulfonyl)piperazin-1-yl)-3,6,9,12-tetraoxatetradecyl)-2-((2-(2,6-dioxopiperidin-3-yl)-1,3-dioxoisoindolin-4-yl)oxy)acetamide], for which the half-maximal inhibitory concentration (IC50) was found to be 1670 nM at CDK2 [1] and 2250 nM against CDK2 [2].
For `O=C1CCC(N2C(=O)c3ccc(N4CC(Oc5ccc(S(=O)(=O)N6CCC(Nc7ncc8ccc(=O)n(C9CCCC9)c8n7)CC6)cc5)C4)cc3C2=O)C(=O)N1` (stereo not drawn) [compound 7, 5-(3-(4-((4-((8-cyclopentyl-7-oxo-7,8-dihydro-pyrido[2,3-d]pyrimidin-2-yl)amino)piperidin-1-yl)sulfonyl)phenoxy)azetidin-1-yl)-2-(2,6-dioxopiperidin-3-yl)isoindoline-1,3-dione] the same measures were 99.9 nM and 1120 nM.
With `O=C1CCC(N2C(=O)c3ccc(CN4CC(Oc5ccc(S(=O)(=O)N6CCC(Nc7ncc8ccc(=O)n(C9CCCC9)c8n7)CC6)cc5)C4)cc3C2=O)C(=O)N1` (stereo not drawn) [compound 8, 5-((3-(4-((4-((8-cyclopentyl-7-oxo-7,8-dihydro-pyrido[2,3-d]pyrimidin-2-yl)amino)piperidin-1-yl)sulfonyl)phenoxy)azetidin-1-yl)methyl)-2-(2,6-dioxopiperidin-3-yl)isoindoline-1,3-dione], the IC50 amounted to 257 nM on CDK2 [1] and 438 nM against CDK2 [2].
